The values that follow come from US20130183323A1, “TARGETED ANTIBIOTIC AND ANTIMICROBIAL TREATMENTS FOR PERSONALIZED ADMINISTRATION” (priority 2011, published 2013).

Holding throughout (assay): minimum inhibition concentration (MIC) for tetracycline
What all share (format): cell-based
Holding throughout (conditions): tetracycline resistant isolate from aquaculture environment

One assay deals with Enterococcus sp. 17fT4. The procedure:
(§1) Study 1. The variability of antibiotic resistant (ART) bacteria in responding to drug treatment was evaluated using tetracycline resistant isolates in brain heart infusion (BHI) broth. […] All strains were isolated from aquaculture environment. The bacteria in different titer were grown in BHI with different concentration of tetracycline conjugated to antibody against Enterococcus.

The next assay has as its system Enterococcus sp. 18fT3. The procedure:
as §1

Assay [1] concerns Plesiomonas shigelloides 17iT21. The procedure: as §1

Values after ≈ are worked out from the molar mass of the structure shown.

Take `CN(C)[C@@H]1C(O)=C(C(N)=O)C(=O)[C@@]2(O)C(O)=C3C(=O)c4c(O)cccc4[C@@](C)(O)[C@H]3C[C@@H]12` [tetracycline]: the minimum inhibitory concentration (MIC) (commonly the lowest concentration found to suppress growth) against Enterococcus sp. 17fT4 was found to be 128 µg/mL (≈ 288 µM); against Enterococcus sp. 18fT3, 512 µg/mL (≈ 1150 µM); in assay [1], 64 µg/mL (≈ 144 µM).
